According to BindingDB's records for doi:10.1021/jm060561m (Purdue University, 2006):
pKi: −log10 of the molar value.

Biological target: T1, Dimer of Gag-Pol polyprotein [501-599,Q508K,L534I,L564I,C568A,C596A] (Human immunodeficiency virus 1, UniProt P03367, C568A/C596A/L534I/L564I/Q508K)
T1 construct: 501-599
Assay: Protease Inhibition Assay
Conditions: pH 6.4; 25 °C
Procedure: The Ki values were determined by substrate cleavage assay using fluorogenic substrate, 2-(aminobenzoyl)-Thr-Ile-Nle-Phe(p-NO2)-Gln-Arg-NH2. A standard curve relating changes in fluorescent intensity to changes in concentration of product was used to convert fluorescent changes into molar velocities. The amount of cleavage was determined by HPLC.

| SMILES | pKi |
| --- | --- |
| CC(C)CN(C[C@@H](O)[C@H](Cc1ccccc1)NC(=O)O[C@@H]1C[C@@H]2CCO[C@@H]2C1)S(=O)(=O)c1ccc(N)cc1 [(3aS,5R,6aR)-hexahydro-2H-cyclopenta[b]furan-5-yl N-[(2S,3R)-4-[(4-aminobenzene)(2-methylpropyl)sulfonamido]-3-hydroxy-1-phenylbutan-2-yl]carbamate] | 9.85 |
| CC(C)CN(C[C@@H](O)[C@H](Cc1ccccc1)NC(=O)O[C@H]1C[C@H]2CCC[C@H]2C1)S(=O)(=O)c1ccc(CO)cc1 [(2R,3aR,6aS)-octahydropentalen-2-yl N-[(2S,3R)-3-hydroxy-4-{[4-(hydroxymethyl)benzene](2-methylpropyl)sulfonamido}-1-phenylbutan-2-yl]carbamate] | 8.28 |
